Marks after values point to notes of the source that are not given here.
How the values were obtained:
[1] = Retina exposure level of rifampicin after topical eye drops (LC/MS); assay type: in vivo, Sprague-Dawley rats; conditions: rat, topical eye drops 0.25% rifampicin (Ex. 1A), average of n = 3
Procedure: The remaining two rats received the same application, but 10 drops of the eye drops, in each eye under isoflurane sedation. A single drop contained 5 μL of the above-described formulation, and application of each drug drop was carried out with intervals of 30 minutes. After the eye drop application, the retina was excised from each rat under a dissection microscope. In addition, “non-treated” negative controls were used, and the retina was excised from two rats without performing any treatments on the rats. The retina was placed in a 1.5-ml microcentrifuge tube (1 retina/tube), and was fully washed with DPBS. After completion of the washing procedures, the retinal tissues in the microcentrifuge tube were frozen in dry ice, and were then preserved for quantification by LC/MS analysis.
At time points of 1 hour, 3 hours, and 7 hours after the application of the eye drops, the retinal tissues were excised from the rats under a dissection microscope. In addition, “non-treated” negative controls were used, and the retina was excised from one rat without performing any treatments on the rats. The retina was placed in a 1.5-ml microcentrifuge tube (1 retina/tube), and was fully washed with DPBS. After completion of the washing procedures, the retinal tissues in the microcentrifuge tube were frozen in dry ice, and were then preserved for quantification by LC/MS analysis. […]

[2] = tested on: Neovascularization in retina of oxygen-induced retinopathy rat models; experiment: Oxygen-induced retinopathy rat model, capillaries counted in histology sections; assay type: in vivo, Sprague-Dawley rat; conditions: vehicle only 16.3
[3] = tested on: CNV induced in sub-retina tissues; experiment: Mouse laser-induced CNV model, CNV area by FITC-dextran fluorescence; assay type: in vivo, C57BL/6J mice; conditions: for Average CNV area (%): n = 10, day 7, vehicle = 100
Procedure: Eyes of C57BL/6J mice were laser irradiated, and CNV were induced in sub-retina tissues in the eyes. […] In 7 days after the laser irradiation, a FITC-dextran solution was administered to the tail vein. The eyeballs were removed under euthanasia, and the removed eyeballs were fixed with 4% paraformaldehyde phosphate buffer. The cornea, iris and lens were excised, and retinal tissues other than retinal pigment epithelium cells were stripped using a microspacer. The optic cups were divided into 4 to 6 sections using a corneal microscissor, and they were placed on a slide glass. […] The CNV areas were quantified using ImageJ (TABLES 11-1 and 11-2; Image software publicly available by NIH).

[4] = Mouse pharmacokinetics after SC injection, sclera+sub-retina complex (LC/MS)
Procedure: This effective dosage and administration route was evaluated in dose escalation studies by using the mouse laser-induced CNV model. […] In 1 hr, 3 hr, 6 hr, and 18 hr after the SC injection, eyeballs were extracted. Tissue from the retina and tissue from the sclera+sub-retina complex were isolated and extracted. These tissues were immediately frozen in liquid nitrogen. The tissue was subjected to LC/MS analysis for quantitation. The detection limit was 0.25 ng/g tissue.

[5] = Rabbit, 0.5%, 50 μL, 250 μg; Sigurdsson et al. 2007; cited from earlier work

| SMILES | Rifampicin extracted from retina ([1]; 3 drops of 5 μL at 30 min intervals) | Rifampicin extracted from retina ([1]; 10 drops of 5 μL at 30 min intervals) | Average numbers of capillaries in high power field per eye ([2]; 0.25% rifampicin topical eye drop (Ex. 1A), three times daily P15-P19, n = 3, P value = 0.0058) | Average numbers of capillaries in high power field per eye ([2]; 0.5% rifampicin SC injection (Ex. 6A), 20 mg/kg once a day P15-P19, n = 3, P value = 0.0102) | Dosage that significantly inhibited neovascularization (effective dosage) ([3]; SC injection, mouse laser-induced CNV model) [mg/kg] | Average CNV area (%) ([3]; SC once daily 0.2 mg/kg, P >0.05 (TABLE 11-1)) | Average CNV area (%) ([3]; SC once daily 0.7 mg/kg, P 0.003 (TABLE 11-2)) | Average CNV area (%) ([3]; SC once daily 0.7 mg/kg, P 0.045 (TABLE 11-1)) | Average CNV area (%) ([3]; SC once daily 2 mg/kg, P 0.011 (TABLE 11-2)) | Ave. rifampicin delivered to sclera + sub-retina complex ([4]; SC 0.7 mg/kg, 18 hr, detection limit 0.25 ng/g tissue) | Share of rifampicin in sub-retina+sclera complex delivered to the sub-retina ([4]; SC injection) | Drug amount detected in retina [5] |
| --- | --- | --- | --- | --- | --- | --- | --- | --- | --- | --- | --- | --- |
| CO[C@H]1/C=C/O[C@@]2(C)Oc3c(C)c(O)c4c(O)c(c(/C=N/N5CCN(C)CC5)c(O)c4c3C2=O)NC(=O)/C(C)=C\C=C\[C@H](C)[C@H](O)[C@@H](C)[C@@H](O)[C@@H](C)[C@H](OC(C)=O)[C@@H]1C [Rifampicin, rifampicin] | 1,288* ng/1 g of tissues | 2,939* ng/1 g of tissues | 7.78 | 9.28 | 0.7 | 90.17 | 74.78 | 81.00 | 78.33 | BDL | approximately 70% |  |
| C[C@@H]1C[C@H]2[C@@H]3CCC4=CC(=O)C=C[C@]4(C)[C@@]3(F)[C@@H](O)C[C@]2(C)[C@@]1(O)C(=O)CO [Dexamethasone] |  |  |  |  |  |  |  |  |  |  |  | About 33 ng/1 g ng/1 g of retinal tissues |

Source: US20250120943A1, “RIFAMYCIN OPHTHALMIC COMPOSITION AND USE THEREOF” (AMD THERAPEUTICS LLC, priority 2022, published 2025)
